Tests used:
Type in all cases: cell-based
[1] = molecular target: T1, Muscarinic acetylcholine receptor M2 (Homo sapiens, UniProt P08172); test: Binding affinity towards cloned human muscarinic acetylcholine receptor M2 stably expressed in CHO-K1 cells using [3H]N-methylscopolamine
T1 sequence (P08172 whole entry): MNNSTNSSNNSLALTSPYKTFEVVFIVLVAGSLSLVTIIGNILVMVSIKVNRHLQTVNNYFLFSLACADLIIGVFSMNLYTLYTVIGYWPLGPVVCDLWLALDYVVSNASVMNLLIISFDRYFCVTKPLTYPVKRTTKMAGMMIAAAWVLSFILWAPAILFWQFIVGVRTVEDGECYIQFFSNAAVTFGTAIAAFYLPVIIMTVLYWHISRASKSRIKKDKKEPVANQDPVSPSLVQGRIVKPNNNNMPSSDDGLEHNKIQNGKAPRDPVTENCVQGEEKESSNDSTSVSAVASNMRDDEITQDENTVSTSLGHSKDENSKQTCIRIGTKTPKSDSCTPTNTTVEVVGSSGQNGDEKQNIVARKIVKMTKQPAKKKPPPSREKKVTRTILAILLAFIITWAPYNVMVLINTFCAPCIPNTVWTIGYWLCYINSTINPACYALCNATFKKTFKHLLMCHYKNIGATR

[2] = molecular target: T2, Muscarinic acetylcholine receptor M4 (Homo sapiens, UniProt P08173); test: Binding affinity towards cloned human muscarinic acetylcholine receptor M4 stably expressed in CHO-K1 cells using [3H]N-methylscopolamine
T2 sequence (P08173 whole entry): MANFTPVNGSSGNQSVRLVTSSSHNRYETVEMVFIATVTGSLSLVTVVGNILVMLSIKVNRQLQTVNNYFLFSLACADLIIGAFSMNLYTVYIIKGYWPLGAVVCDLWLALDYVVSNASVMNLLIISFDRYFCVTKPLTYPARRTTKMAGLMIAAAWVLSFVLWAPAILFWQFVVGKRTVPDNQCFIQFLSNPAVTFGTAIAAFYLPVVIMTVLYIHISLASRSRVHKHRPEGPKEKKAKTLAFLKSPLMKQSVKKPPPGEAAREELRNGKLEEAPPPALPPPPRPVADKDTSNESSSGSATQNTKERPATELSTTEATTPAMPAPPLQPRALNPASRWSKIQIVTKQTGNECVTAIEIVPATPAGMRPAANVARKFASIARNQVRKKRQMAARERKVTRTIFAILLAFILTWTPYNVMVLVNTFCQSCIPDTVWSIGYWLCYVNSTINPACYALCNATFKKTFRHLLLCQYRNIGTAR

[3] = molecular target: Muscarinic acetylcholine receptor M3 (Homo sapiens, UniProt P20309); test: Binding affinity towards cloned human muscarinic acetylcholine receptor M3 stably expressed in CHO-K1 cells using [3H]N-methylscopolamine
Muscarinic acetylcholine receptor M3, sequence (P20309 whole entry): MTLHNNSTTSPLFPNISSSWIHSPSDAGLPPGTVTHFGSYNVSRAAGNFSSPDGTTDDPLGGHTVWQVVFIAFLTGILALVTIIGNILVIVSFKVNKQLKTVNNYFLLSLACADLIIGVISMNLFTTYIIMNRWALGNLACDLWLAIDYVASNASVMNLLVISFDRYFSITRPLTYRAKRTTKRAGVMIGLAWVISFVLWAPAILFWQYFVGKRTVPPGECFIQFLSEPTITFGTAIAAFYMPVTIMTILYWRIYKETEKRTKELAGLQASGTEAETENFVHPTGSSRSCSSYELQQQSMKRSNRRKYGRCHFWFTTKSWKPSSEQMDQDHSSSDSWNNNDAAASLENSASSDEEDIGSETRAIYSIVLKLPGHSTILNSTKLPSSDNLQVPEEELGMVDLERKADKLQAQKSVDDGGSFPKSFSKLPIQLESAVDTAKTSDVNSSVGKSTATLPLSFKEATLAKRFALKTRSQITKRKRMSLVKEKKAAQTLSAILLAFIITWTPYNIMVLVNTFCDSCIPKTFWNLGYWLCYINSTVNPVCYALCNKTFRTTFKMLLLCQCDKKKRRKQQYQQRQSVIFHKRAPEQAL

[4] = molecular target: T3, Muscarinic acetylcholine receptor M1 (Homo sapiens, UniProt P11229); test: Binding affinity towards cloned human muscarinic acetylcholine receptor M1 stably expressed in CHO-K1 cells using [3H]N-methylscopolamine
T3 sequence (P11229 whole entry): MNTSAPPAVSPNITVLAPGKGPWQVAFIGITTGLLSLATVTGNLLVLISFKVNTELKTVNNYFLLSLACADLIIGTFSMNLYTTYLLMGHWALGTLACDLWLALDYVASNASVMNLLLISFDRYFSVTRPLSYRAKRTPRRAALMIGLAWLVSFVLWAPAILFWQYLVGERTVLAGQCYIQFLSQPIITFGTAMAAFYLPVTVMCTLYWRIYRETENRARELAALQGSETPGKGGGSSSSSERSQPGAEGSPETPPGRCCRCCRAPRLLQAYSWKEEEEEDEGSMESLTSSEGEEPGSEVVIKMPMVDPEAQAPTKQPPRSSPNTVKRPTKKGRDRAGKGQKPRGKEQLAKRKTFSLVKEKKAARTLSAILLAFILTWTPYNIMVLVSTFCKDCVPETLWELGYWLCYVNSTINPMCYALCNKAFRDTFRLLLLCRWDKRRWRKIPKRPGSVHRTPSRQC

[5] = molecular target: T4, Muscarinic acetylcholine receptor M5 (Homo sapiens, UniProt P08912); test: Binding affinity towards cloned human muscarinic acetylcholine receptor M5 stably expressed in CHO-K1 cells using [3H]N-methylscopolamine
T4 sequence (P08912 whole entry): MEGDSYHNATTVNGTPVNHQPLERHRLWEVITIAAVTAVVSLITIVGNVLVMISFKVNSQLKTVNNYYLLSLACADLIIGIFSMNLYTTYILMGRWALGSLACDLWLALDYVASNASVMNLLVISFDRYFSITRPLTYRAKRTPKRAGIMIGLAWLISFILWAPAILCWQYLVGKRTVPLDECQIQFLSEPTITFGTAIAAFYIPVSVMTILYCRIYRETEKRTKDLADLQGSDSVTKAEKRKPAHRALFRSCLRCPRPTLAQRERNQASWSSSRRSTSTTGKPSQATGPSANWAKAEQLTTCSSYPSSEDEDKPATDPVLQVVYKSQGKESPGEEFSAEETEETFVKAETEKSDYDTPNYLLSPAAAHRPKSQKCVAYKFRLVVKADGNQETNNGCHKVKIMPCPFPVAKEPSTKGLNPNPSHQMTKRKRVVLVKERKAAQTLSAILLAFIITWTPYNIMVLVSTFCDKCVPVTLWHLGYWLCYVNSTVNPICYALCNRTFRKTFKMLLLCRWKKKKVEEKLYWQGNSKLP

Row | Ki [1] | Ki [2] | Ki [3] | Ki [4] | Ki [5] | Compound
1 | 1070 nM | 4170 nM | 1170 nM | 1550 nM | 6030 nM | COc1ccc2c(c1)CC(CCN(C)C)=C2C(C)c1ccccn1 (stereo not given)
2 | 93300 nM | 87100 nM | 135000 nM | 53700 nM | 41700 nM | CN(C)CCNC(=O)C1=C(Cc2ccncc2)c2ccccc2C1
3 | 44.7 nM | 457 nM | 955 nM | 447 nM | 2090 nM | CCN(CC)CCC1=C(C(C)c2ccccn2)c2ccccc2C1 (stereo not given)
4 | 363 nM | 741 nM | 501 nM | 347 nM | 912 nM | CC(C1=C(CCN(C)C)Cc2ccc(Cl)cc21)c1ccccn1 (stereo not given)
5 | 6030 nM | 13200 nM | 8130 nM | 3550 nM | 11200 nM | CN(C)CCOC(=O)C1=C(Cc2cccnc2)c2ccccc2C1
6 | 6760 nM | 8320 nM | 11700 nM | 4270 nM | 10200 nM | CN(C)CCC1=C(Cc2ccncc2)c2ccccc2C1
7 | 676 nM | 617 nM | 631 nM | 245 nM | 302 nM | CCCC(C1=C(CCN(C)C)Cc2ccccc21)c1ccccn1 (stereo not given)
8 | 257 nM | 372 nM | 288 nM | 158 nM | 309 nM | CC(C1=C(CCN(C)C)Cc2ccccc21)c1ccccc1 (stereo not given)
9 | 51.3 nM | 603 nM | 741 nM | 229 nM | 1120 nM | CC(C1=C(CN(C)C(C)C)Cc2ccccc21)c1ccccn1 (stereo not given)
10 | 4900 nM | 14800 nM | 8910 nM | 5370 nM | 17400 nM | CN(C)CCOC(=O)C1=C(Cc2ccccn2)c2ccccc2C1
11 | 1020 nM | 8510 nM | 3160 nM | 3720 nM | 8910 nM | COc1ccc2c(c1)C(C(C)c1ccccn1)=C(CCN(C)C)C2 (stereo not given)
12 | 14800 nM | 26900 nM | 24000 nM | 16200 nM | 45700 nM | CN(C)CCNC(=O)C1=C(Cc2ccccn2)c2ccccc2C1
13 | 1950 nM | 3240 nM | 2510 nM | 1620 nM | 5890 nM | Cc1ccc2c(c1)C(C(C)c1ccccn1)=C(CCN(C)C)C2 (stereo not given)
14 | 112 nM | 646 nM | 263 nM | 331 nM | 1050 nM | CC(C1=C(CCN(C)C)Cc2ccc(F)cc21)c1ccccn1 (stereo not given)
15 | 107 nM | 832 nM | 282 nM | 224 nM | 776 nM | CCC(C1=C(CCN(C)C)Cc2cc(Cl)ccc21)c1ccccn1 (stereo not given)
16 | 97.7 nM | 661 nM | 309 nM | 240 nM | 676 nM | CCC(C1=C(CCN(C)C)Cc2ccccc21)c1ccccn1 (stereo not given)
17 | 589 nM | 1410 nM | 501 nM | 562 nM | 1450 nM | Cc1ccc2c(c1)CC(CCN(C)C)=C2C(C)c1ccccn1 (stereo not given)
18 | 851 nM | 1910 nM | 1780 nM | 1910 nM | 2340 nM | CC(C1=C(CCN2CCCCC2)Cc2ccccc21)c1ccccn1 (stereo not given)
19 | 398 nM | 1230 nM | 1910 nM | 1050 nM | 2000 nM | CC(C1=C(CCN2CCCC2)Cc2ccccc21)c1ccccn1 (stereo not given)
20 | 5370 nM | 7410 nM | 8130 nM | 3720 nM | 7940 nM | CN(C)CCC1=C(Cc2cccnc2)c2ccccc2C1
21 | 39800 nM | 46800 nM | 49000 nM | 49000 nM | 66100 nM | CN(C)CCNC(=O)C1=C(Cc2cccnc2)c2ccccc2C1
22 | 1450 nM | 4170 nM | 2750 nM | 4370 nM | 2690 nM | CC(C1=C(CCN2CCOCC2)Cc2ccccc21)c1ccccn1 (stereo not given)
23 | 15.5 nM | 81.3 nM | 25.7 nM | 52.5 nM | 372 nM | CN(C)CCC1=C(C(C)(C)c2ccccn2)c2ccccc2C1
